Laboratory results from US20220370463A1, “STABILIZED C-FMS INTRACELLULAR FRAGMENTS (FICD) PROMOTE OSTEOCLAST DIFFERENTIATION AND ARTHRITIC BONE EROSION” (New York Society for the Relief of the Ruptured and …, priority 2019, published 2022).

System: K/BxN serum-induced arthritis
Experiment: K/BxN serum transfer induced arthritis model
Assay type: in vivo, C57BL/6J mice
Experimental: (a and b) BMDMs from WT and FICDtg^M mice was stimulated with RANKL (50 ng/ml) at the indicated time. (a) RT-qPCR of Nfatc1 mRNA normalized relative to Hprt mRNA. (b) Immunoblot with anti NFATc1, HA, or α-tubulin antibodies. (c and d) BMDMs from Csf1r^f/+ Mx1-Cre mice were transduced by lentiviruses encoding FMS^wt, or FMS^mut and then cultured with M-CSF and RANKL. (c) Immunoblot of whole lysate with anti-NFATc1 antibody. α-tubulin was used as a control. […] The intensity of NFATc1 in FMS^mut was set as 100%. (d) Expression mRNA level of NFATc1. (e) Immunoblot of whole cell lysates with phospho-eIF4E antibodies. HA-tagged FICD was detected by HA-antibody. α-tubulin was used as a control. […] (f and g) Human CD14+ cells were treated with CGP57380 at the indicated doses for one hour and cultured with RANKL for one day. […] (g) Nfatc1 mRNA expression was measured by qPCR relative to HPRT. A DMSO-treated RANKL condition was set as 100%. (h) Osteoclastogenesis assay. BMDMs from WT and FICDtg^M mice were treated with CPG57380 at the indicated doses and then cultured with RANKL for three days. […] Scale bar: 100 μm. (i) Cell viability assay. BMDMs WT and FICDtg^M mice was stimulated with CPG57380 at the indicated doses for one day. (j-n) K/BxN serum transfer induced arthritis model. 9-week old male C57BL/6J mice were received K/BxN serum on day 0 and day 2. Vehicle or CPG57380 (40 mg/kg) was administrated intraperitoneally (i.p) at day 2 until day 13 (n=5-6). (j) Schematic diagram showing experimental design. (k) Ankle thickness. (1) Arthritis score. (m) Representative images of TRAP stained histological sections from calcaneocuboid and tarsometatarsal joints. (n) Histomorphometry analysis of tarsal bones. N.OC/B.Pm; Osteoclast number/bone parameter. OC.S/BS; osteoclast surface/bone surface. ES/BS; Eroded surface/bone surface (n=5-6). All data are shown as mean±SEM. *, p<0.05 by One-way ANOVA with a post hoc Tukey test (a, f-i,k,l) or two-tailed, unpaired t-test (d,e,n). Data represent at least three experiments.
FIGS. 11A-11E show calpain regulates FICD generation. (A-E) K/BxN serum transfer induced arthritis model. 8-week old male C57BL/6J mice were received K/BxN serum on day 0 and day 2. Vehicle or MDL28170 (10 mg/kg) was administrated intraperitoneally (i.p) at day 2 until day 11 (n=10). (A) K/BxN Experimental design. (B) Arthritis score. (C) Ankle thickness. (D) Representative images of TRAP stained histological sections from calcaneocuboid and tarsometatarsal joints. (E) Histomorphometry analysis of tarsal bones. N.OC/B.Pm; Osteoclast number/bone parameter. […]
Histomorphometry experiment was performed with tarsal bone of vehicle or MDL28170 treated mice. […] The quantification of osteoclast was performed in paraffin embedded tissues that were stained for TRAP and Methyl green (Vector Laboratories). […]

[1] = CGP57380 40 mg/kg i.p. day 2 until day 13
[2] = MDL28170 10 mg/kg i.p. day 2 until day 11

## MDL28170
[1]
  severity of arthritis: ankle joint thickness: not affected
  severity of arthritis: clinical score: not affected
[2]
  severity of arthritis: ankle joint thickness: attenuated
  severity of arthritis: clinical score: attenuated
